The subject of data set [1] is human urinary bladder cancer cell line RT-112. The experiment in a line: Cytotoxicity assay (CellTiter-Glo, 72 h), RT-112. It is filed as cell-based. Particulars: read-out: Cytotoxicity (IC50, nM) RT-112. On the technique in general: In ATP-based viability assays light output follows the ATP content of the culture.
Procedure: (§1) Cytotoxicity of SDC-TRAP molecules was determined in three cancer cell lines. […] 80 μL of CellTiter-Glo was added to each well, followed by room temperature incubation in the dark for 15 minutes. Cell was determined by luminescence. IC50 was calculated using XLfit™ software.
The test system of data set [2] is human breast cancer cell line BT-474. The experiment in a line: Cytotoxicity assay (CellTiter-Glo, 72 h), BT-474. Format: cell-based. Particulars: read-out: Cytotoxicity (IC50, nM) BT-474.
Procedure: as §1
For data set [3], the system named is human urinary bladder cancer cell line SW780. In words: Cytotoxicity assay (CellTiter-Glo, 72 h), SW780. It is filed as cell-based. Particulars: read-out: Cytotoxicity (IC50, nM) SW-780.
Procedure: as §1
The subject of data set [4] is HER2. The experiment in a line: HER2 degradation assay with BT-474 cell line (Example 12, FACS). Format: cell-based, human.
Data set [5] is described as follows: SDC-TRAP-0063 PK in male SD rats (slow IV bolus). It is filed as in vivo. Particulars: of monitored analyte.
A short description of data set [6]: SDC-TRAP-0063 PK in male CD-1 mice (IV bolus). Format: in vivo. Particulars: of monitored analyte.
The mark [7] stands for this setting: dosed SDC-TRAP-0063 10 mpk slow IV bolus.
Where [8] appears, read: dosed SDC-TRAP-0063 50 mpk slow IV bolus.
[9] abbreviates: dosed SDC-TRAP-0063 100 mpk slow IV bolus.
Where [10] appears, read: dosed SDC-TRAP-0063 150 mpk slow IV bolus.
Where [11] appears, read: dosed SDC-TRAP-0063 50 mpk IV bolus.
The mark [12] stands for this setting: dosed SDC-TRAP-0063 100 mpk IV bolus.
The mark [13] stands for this setting: dosed SDC-TRAP-0063 200 mpk IV bolus.

Where two headings read alike, the source gives them in different places.

Results on seven compounds are retold here after patent US10828315B2 (Madrigal Pharmaceuticals, Inc., priority 2013, dated 2020).

Usually IC50 stands for the point on the concentration scale where inhibition reaches its midpoint. As usually defined, the Cmax is the peak of the concentration-time curve. By Tmax is commonly meant the time at which the peak concentration occurs. As a reminder, the Vss is a proportionality between amount in the body and measured concentration, not a real space. A lower Vss goes with little distribution into tissue. One may read the Vz as a proportionality between amount in the body and measured concentration, not a real space. The low end stands for confinement near the circulation, the high end for extensive tissue distribution.

Consider `CC(C)c1cc(-c2nnc(O)n2-c2ccc(CN3CCN(C(=O)CCCc4nc5cc(N(CCCl)CCCl)ccc5n4C)CC3)cc2)c(O)cc1O` [SDC-TRAP-0069, 4-(5-(bis (2-chloroethyl)amino)-1-methyl-1H-benzo[d]imidazol-2-yl)-1-(4-(4-(3-(2,4-dihydroxy-5-isopropylphenyl)-5-hydroxy-4H-1,2,4-triazol-4-yl)benzyl)piperazin-1-yl)butan-1-one], for which the IC50 is 909 nM in data set [1] (RT-112, 72 h); 914 nM in data set [2] (BT-474, 72 h); 1340 nM in data set [3] (SW780, 72 h); 1.23 µM in data set [4] (BT-474 cells, overnight).

Regarding `CC(C)c1cc(-c2nnc(O)n2-c2ccc3c(c2)CN(C(=O)c2ccc(CCc4c[nH]c5nc(N)[nH]c(=O)c45)cc2)C3)c(O)cc1O` [SDC-TRAP-0093, 2-amino-5-(4-(5-(3-(2,4-dihydroxy-5-isopropylphenyl)-5-hydroxy-4H-1,2,4-triazol-4-yl)isoindoline-2-carbonyl)phenethyl)-3H-pyrrolo[2,3-d]pyrimidin-4(7H)-one], the IC50 was 1290 nM in data set [1] (RT-112, 72 hours); 1540 nM in data set [2] (BT-474, 72 hours); > 10000 nM in data set [3] (SW780, 72 hours).

In the case of `CCNC(=O)c1nnc(-c2cc(C(C)C)c(O)cc2O)n1-c1ccc(CN2CCC(C(=O)N3CCC(C(=O)N[C@H]4C[C@H](O[C@H]5C[C@](O)(C(=O)CO)Cc6c(O)c7c(c(O)c65)C(=O)c5c(OC)cccc5C7=O)O[C@@H](C)[C@H]4O)CC3)CC2)cc1` [SDC-TRAP-0198, 1-(1-(4-(3-(2,4-dihydroxy-5-isopropylphenyl)-5-(ethylcarbamoyl)-4H-1,2,4-triazol-4-yl)benzyl)piperidine-4-carbonyl)-N-((2S,3S,4S,6R)-3-hydroxy-2-methyl-6-(((1S,3S)-3,5, 12-trihydroxy-3-(2-hydroxyacetyl)-10-methoxy-6,11-dioxo-1,2,3,4,6,11-hexahydrotetracen-1-yl)oxy)tetrahydro-2H-pyran-4-yl)piperidine-4-carboxamide], the IC50 in data set [1] (RT-112, 72 hours) is 297 nM; in data set [2] (BT-474, 72 hours), 786 nM; in data set [3] (SW780, 72 hours), > 10000 nM; in data set [4] (BT-474 cells, overnight) it was > 10 µM.

As to `CCc1c2c(nc3ccc(OC(=O)N4CCN(C(=O)Cn5ccc6cc(-n7c(O)nnc7-c7cc(C(C)C)c(O)cc7O)ccc65)CC4C)cc13)-c1cc3c(c(=O)n1C2)COC(=O)C3(O)CC` (stereo not drawn) [SDC-TRAP-0201, 4,11-Diethyl-4-hydroxy-3,14-dioxo-3,4,12,14-tetrahydro-1H-pyrano[3′,4′:6,7]indolizino[1,2-b]quinolin-9-yl 4-(2-(5-(3-(2,4-dihydroxy-5-isopropylphenyl)-5-hydroxy-4H-1,2,4-triazol-4-yl)-1H-indol-1-yl)acetyl)-2-methylpiperazine-1-carboxylate], the IC50 turned out to be 72 nM in data set [1] (RT-112, 72 h); 1410 nM in data set [2] (BT-474, 72 h); 1100 nM in data set [3] (SW780, 72 h); 4.67 µM in data set [4].

Consider `CCc1c2c(nc3ccc(OC(=O)N4CCC[C@H]4C(=O)N4CCN(c5ccc(-n6c(O)nnc6-c6cc(C(C)C)c(O)cc6O)cc5)CC4)cc13)-c1cc3c(c(=O)n1C2)COC(=O)[C@]3(O)CC` [SDC-TRAP-0204, (S)—(S)-4,11-diethyl-4-hydroxy-3,14-dioxo-3,4,12,14-tetrahydro-1H-pyrano[3′,4′:6,7]indolizino[1,2-b]quinolin-9-yl 2-(4-(4-(3-(2,4-dihydroxy-5-isopropylphenyl)-5-hydroxy-4H-1,2,4-triazol-4-yl)phenyl)piperazine-1-carbonyl)pyrrolidine-1-carboxylate], for which the IC50 in data set [1] (RT-112, 72 h) was 1310 nM; in data set [2] (BT-474, 72 h) it was 8060 nM; in data set [3] (SW780, 72 h) it was > 10000 nM; in data set [4] it was > 10 µM.

As to `COc1cccc2c1C(=O)c1c(O)c3c(c(O)c1C2=O)C[C@@](O)(/C(CO)=N/NC(=O)CCn1ccc2cc(-n4c(O)nnc4-c4cc(C(C)C)c(O)cc4O)ccc21)C[C@@H]3O[C@H]1C[C@H](N)[C@H](O)[C@H](C)O1` [SDC-TRAP-0219, (E)-N′-(1-((2S,4S)-4-(((2R,4S,5S,6S)-4-amino-5-hydroxy-6-methyltetrahydro-2H-pyran-2-yl)oxy)-2,5,12-trihydroxy-7-methoxy-6,11-dioxo-1,2,3,4,6,11-hexahydrotetracen-2-yl)-2-hydroxyethylidene)-3-(5-(3-(2,4-dihydroxy-5-isopropylphenyl)-5-hydroxy-4H-1,2,4-triazol-4-yl)-1H-indol-1-yl)propanehydrazide], the IC50 is 973 nM in data set [1] (RT-112, 72 hours); > 10000 nM in data set [2] (BT-474, 72 hours); > 10000 nM in data set [3] (SW780, 72 hours).

Regarding `CCc1c2c(nc3ccc(OC(=O)N4CCC(CCn5ccc6cc(-n7c(O)nnc7-c7cc(C(C)C)c(O)cc7O)ccc65)CC4)cc13)-c1cc3c(c(=O)n1C2)COC(=O)C3(O)CC` (stereo not drawn) [compound 0063], in data set [5] (setting [7]), the AUCinf is 38.8 µM·h, the AUCt came out at 38.8 µM·h, the CL worked out at 0.294 L/h/kg and the peak level (Cmax) was 102 µM. Besides, in data set [5] (setting [7]), the Tmax came to 4.98 min, the Vss is recorded as 0.0590 L/kg, the Vz is recorded as 0.441 L/kg and the t1/2 was found to be 1.0 h. In data set [5] (setting [8]), the AUCinf was 687 µM·h, the AUCt is 687 µM·h, the CL is recorded as 0.0830 L/h/kg and the peak level (Cmax) was 659 µM. Besides, in data set [5] (setting [8]), the Tmax stood at 4.98 min, the Vss is on record as 0.0640 L/kg, the Vz came to 0.0924 L/kg and the t1/2 was 0.8 h. For the same compound, in data set [5] (setting [9]), the AUCinf came out at 1786 µM·h, the AUCt was 1785 µM·h, the CL worked out at 0.0648 L/h/kg and the peak level (Cmax) was 1210 µM. Also, in data set [5] (setting [9]), the Tmax came to 4.98 min, the Vss turned out to be 0.0654 L/kg, the Vz came to 0.153 L/kg and the t1/2 was 1.6 h. In addition, in data set [5] (setting [10]), the AUCinf amounted to 5302 µM·h, the AUCt was 5302 µM·h, the CL stood at 0.0328 L/h/kg and the peak level (Cmax) was 1900 µM. Also, in data set [5] (setting [10]), the Tmax is 30 min, the volume of distribution (Vss) is reported as 0.0663 L/kg, the Vz came to 0.0855 L/kg and the t1/2 is 1.8 h. In data set [6] (setting [11]), this compound gave an AUCinf of 237 µM·h, an AUCt of 235 µM·h, a CL of 0.240 L/h/kg and a Cmax of 414 µM. For the same compound, in data set [6] (setting [11]), the Tmax came to 4.98 min, the distribution volume (Vss) came out at 0.122 L/kg, the Vz turned out to be 0.659 L/kg and the t1/2 is recorded as 1.9 h. In data set [6] (setting [12]), this compound showed an AUCinf of 549 µM·h, an AUCt of 549 µM·h, a CL of 0.207 L/h/kg and a Cmax of 799 µM. Also, in data set [6] (setting [12]), the Tmax is 4.98 min, the Vss is 0.241 L/kg, the Vz is given as 0.747 L/kg and the t1/2 is reported as 2.5 h. Besides, in data set [6] (setting [13]), the AUCinf was 2884 µM·h, the AUCt stood at 2882 µM·h, the CL is 0.079 L/h/kg and the Cmax was found to be 1620 µM. In data set [6] (setting [13]), the Tmax is 4.98 min, the Vss came out at 0.173 L/kg, the Vz is recorded as 0.307 L/kg and the t1/2 is listed as 2.7 h.
